# Results from ChEMBL document CHEMBL1201862, “PubChem BioAssay data set” (2004).
#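 96-well plates; 48 h exposure; 5 concentrations. Endpoints by linear interpolation between flanking doses. Not reached: highest tested concentration assigned. Here, GI50 denotes the concentration required for 50% inhibition of growth.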 Activity calls are given as the source filed them. Cut-off read from the data, not from the text of the source: active = GI50 up to about 1.1 µM and inactive = higher.
# What was measured:
# Assay in all cases: NCI anticancer screen, dose series, 48 h
# HOP-62 = test system: HOP-62
# SK-OV-3 = test system: SK-OV-3
# M14 = test system: M14
# SK-MEL-2 = test system: SK-MEL-2
# A498 = test system: A498
# A549 = test system: A549
# SK-MEL-28 = test system: SK-MEL-28
# MOLT-4 = test system: MOLT-4
# RPMI-8226 = test system: RPMI-8226
# DLD-1 = test system: DLD-1
# IGROV-1 = test system: IGROV-1
# ACHN = test system: ACHN
# OVCAR-8 = test system: OVCAR-8
# NCI-H522 = test system: NCI-H522
# TK-10 = test system: TK-10
# COLO 205 = test system: COLO 205
# HL-60 = test system: HL-60
# LOX IMVI = test system: LOX IMVI
SMILES,GI50 (HOP-62),GI50 (SK-OV-3),GI50 (M14),GI50 (SK-MEL-2),GI50 (A498),GI50 (A549),GI50 (SK-MEL-28),GI50 (MOLT-4),GI50 (RPMI-8226),GI50 (DLD-1),GI50 (IGROV-1),GI50 (ACHN),GI50 (OVCAR-8),GI50 (NCI-H522),GI50 (TK-10),GI50 (COLO 205),GI50 (HL-60),GI50 (LOX IMVI)
Cc1ccc(C2=C(c3ccccc3)C(=O)C(c3ccccc3)=C2c2ccc(C)cc2)cc1,> 100 µM (inactive),> 100 µM (inactive),> 100 µM (inactive),6.79 µM (inactive),> 100 µM (inactive),43.7 µM (inactive),21.9 µM (inactive),14.5 µM (inactive),29.1 µM (inactive),41.2 µM (inactive),> 100 µM (inactive),32.3 µM (inactive),73.6 µM (inactive),72.9 µM (inactive),45.6 µM (inactive),–,–,–
CSc1nc2nc(C(O)C(O)C(O)CO)cnc2c(=O)[nH]1 (stereo unspecified),> 100 µM (inactive),> 100 µM (inactive),> 100 µM (inactive),> 100 µM (inactive),> 100 µM (inactive),> 100 µM (inactive),> 100 µM (inactive),> 100 µM (inactive),> 100 µM (inactive),> 100 µM (inactive),> 100 µM (inactive),> 100 µM (inactive),> 100 µM (inactive),> 100 µM (inactive),> 100 µM (inactive),> 100 µM (inactive),> 100 µM (inactive),> 100 µM (inactive)
CCOC(=O)Cn1c(=O)n(C)c(=O)c2c1ncn2Cc1ccccc1,> 100 µM (inactive),> 100 µM (inactive),> 100 µM (inactive),> 100 µM (inactive),> 100 µM (inactive),> 100 µM (inactive),> 100 µM (inactive),> 100 µM (inactive),> 100 µM (inactive),> 100 µM (inactive),> 100 µM (inactive),> 100 µM (inactive),> 100 µM (inactive),> 100 µM (inactive),> 100 µM (inactive),> 100 µM (inactive),–,–
CC(Oc1ccc(OCC2CCCCC2)cc1)C(=O)NCCO (stereo unspecified),–,> 100 µM (inactive),> 100 µM (inactive),> 100 µM (inactive),48 µM (inactive),> 100 µM (inactive),> 100 µM (inactive),> 100 µM (inactive),–,> 100 µM (inactive),> 100 µM (inactive),> 100 µM (inactive),> 100 µM (inactive),87.1 µM (inactive),> 100 µM (inactive),–,> 100 µM (inactive),26.7 µM (inactive)
CCOC(=O)NC(=O)c1cn(CCN2CCN(C(=O)CCCCCCCCCCNc3ncnc4c3ncn4C3OC(CO)C(O)C3O)CC2)c(=O)[nH]c1=O (stereo unspecified),> 100 µM (inactive),> 100 µM (inactive),> 100 µM (inactive),> 100 µM (inactive),> 100 µM (inactive),> 100 µM (inactive),> 100 µM (inactive),> 100 µM (inactive),–,> 100 µM (inactive),> 100 µM (inactive),> 100 µM (inactive),> 100 µM (inactive),–,> 100 µM (inactive),> 100 µM (inactive),> 100 µM (inactive),> 100 µM (inactive)
CC(=O)C1=CSC2[C@H](NC(=O)Cc3ccccc3)C(=O)N2C1C(=O)OC(c1ccccc1)c1ccccc1 (stereo partly specified),58.6 µM (inactive),> 100 µM (inactive),> 100 µM (inactive),> 100 µM (inactive),> 100 µM (inactive),91.8 µM (inactive),> 100 µM (inactive),35.8 µM (inactive),39.5 µM (inactive),> 100 µM (inactive),> 100 µM (inactive),–,> 100 µM (inactive),> 100 µM (inactive),> 100 µM (inactive),> 100 µM (inactive),35.2 µM (inactive),–
CC(C)C(Sc1nc(-c2ccccc2)c(-c2ccccc2)[nH]1)C(=O)NN (stereo unspecified),> 100 µM (inactive),> 100 µM (inactive),> 100 µM (inactive),> 100 µM (inactive),> 100 µM (inactive),> 100 µM (inactive),> 100 µM (inactive),49.7 µM (inactive),> 100 µM (inactive),> 100 µM (inactive),> 100 µM (inactive),> 100 µM (inactive),> 100 µM (inactive),74.8 µM (inactive),92.5 µM (inactive),> 100 µM (inactive),31.6 µM (inactive),> 100 µM (inactive)
COc1ccc(/C=N\O[Si](C)(C)C(C)(C)C)cc1O[Si](C)(C)C(C)(C)C,20.2 µM (inactive),30.6 µM (inactive),20 µM (inactive),16.5 µM (inactive),16.7 µM (inactive),18 µM (inactive),–,17.4 µM (inactive),17.9 µM (inactive),17.9 µM (inactive),18.9 µM (inactive),18 µM (inactive),22.8 µM (inactive),–,20.4 µM (inactive),22.5 µM (inactive),19.6 µM (inactive),20 µM (inactive)
COC(=O)c1cc(OC(C)=O)c2c(OC)ccc(OC)c2c1,–,> 100 µM (inactive),> 100 µM (inactive),> 100 µM (inactive),–,> 100 µM (inactive),> 100 µM (inactive),60.8 µM (inactive),> 100 µM (inactive),> 100 µM (inactive),> 100 µM (inactive),> 100 µM (inactive),> 100 µM (inactive),–,> 100 µM (inactive),> 100 µM (inactive),–,–
C=CCCc1cc(OC)ccc1CN(C)C(C)(C)CO,> 100 µM (inactive),–,–,> 100 µM (inactive),> 100 µM (inactive),> 100 µM (inactive),> 100 µM (inactive),–,> 100 µM (inactive),> 100 µM (inactive),> 100 µM (inactive),> 100 µM (inactive),> 100 µM (inactive),–,> 100 µM (inactive),> 100 µM (inactive),–,> 100 µM (inactive)
COc1cc(C(=O)Nc2cccc3ccccc23)c(Br)c(OC)c1OC,> 100 µM (inactive),> 100 µM (inactive),> 100 µM (inactive),> 100 µM (inactive),–,66.2 µM (inactive),89.9 µM (inactive),39.7 µM (inactive),42.8 µM (inactive),> 100 µM (inactive),81.8 µM (inactive),81.7 µM (inactive),0.0416 µM (active),56.9 µM (inactive),> 100 µM (inactive),> 100 µM (inactive),24.2 µM (inactive),80 µM (inactive)
CC(=O)NNc1nc(C)c(C(/C=C/c2ccc(Cl)cc2)=N/NC(=S)NN)s1,> 100 µM (inactive),> 100 µM (inactive),> 100 µM (inactive),> 100 µM (inactive),> 100 µM (inactive),> 100 µM (inactive),> 100 µM (inactive),> 100 µM (inactive),> 100 µM (inactive),> 100 µM (inactive),> 100 µM (inactive),> 100 µM (inactive),> 100 µM (inactive),> 100 µM (inactive),> 100 µM (inactive),> 100 µM (inactive),> 100 µM (inactive),> 100 µM (inactive)
COC(=O)/C(=N\NC(N)=S)C(C(=O)OC)C(=O)C(=O)Nc1ccc(C)cc1 (stereo unspecified),> 100 µM (inactive),> 100 µM (inactive),> 100 µM (inactive),> 100 µM (inactive),> 100 µM (inactive),> 100 µM (inactive),> 100 µM (inactive),> 100 µM (inactive),> 100 µM (inactive),> 100 µM (inactive),> 100 µM (inactive),> 100 µM (inactive),> 100 µM (inactive),> 100 µM (inactive),> 100 µM (inactive),> 100 µM (inactive),> 100 µM (inactive),> 100 µM (inactive)
Cn1c2c(c3ccccc31)CCN(CCCN1CCN(c3cccc(Cl)c3)CC1)C2=O,18.7 µM (inactive),38.5 µM (inactive),17.1 µM (inactive),–,3.05 µM (inactive),49.3 µM (inactive),17.4 µM (inactive),11.6 µM (inactive),12.2 µM (inactive),23 µM (inactive),26.4 µM (inactive),10.9 µM (inactive),23.7 µM (inactive),18.8 µM (inactive),27.8 µM (inactive),15.1 µM (inactive),6.85 µM (inactive),20.2 µM (inactive)
CN(C)/N=N/c1ccc(C(N)=O)cc1,> 100 µM (inactive),> 100 µM (inactive),> 100 µM (inactive),> 100 µM (inactive),> 100 µM (inactive),> 100 µM (inactive),> 100 µM (inactive),> 100 µM (inactive),> 100 µM (inactive),> 100 µM (inactive),> 100 µM (inactive),> 100 µM (inactive),> 100 µM (inactive),> 100 µM (inactive),> 100 µM (inactive),> 100 µM (inactive),> 100 µM (inactive),> 100 µM (inactive)
OCCCCn1cnc2c(O)ncnc21,> 100 µM (inactive),–,> 100 µM (inactive),–,> 100 µM (inactive),> 100 µM (inactive),> 100 µM (inactive),> 100 µM (inactive),> 100 µM (inactive),> 100 µM (inactive),> 100 µM (inactive),> 100 µM (inactive),> 100 µM (inactive),–,> 100 µM (inactive),> 100 µM (inactive),> 100 µM (inactive),> 100 µM (inactive)
COc1cc(C(=O)O)cc2c1[nH]c1ccccc12 [MUKOEIC ACID],> 25 µM (inactive),> 25 µM (inactive),> 25 µM (inactive),> 25 µM (inactive),–,> 25 µM (inactive),> 25 µM (inactive),> 25 µM (inactive),> 25 µM (inactive),> 25 µM (inactive),> 25 µM (inactive),> 25 µM (inactive),> 25 µM (inactive),> 25 µM (inactive),> 25 µM (inactive),> 25 µM (inactive),> 25 µM (inactive),> 25 µM (inactive)
